Experimental data as given in patent US12233056B2, “Lysyl oxidase inhibitors for treating myeloid malignancies” (Syntara Limited, priority 2022, dated 2025).

What was measured:
[1] = system: in vitro co-cultured, patient derived, MSC/HSC cells; test: Erythroid differentiation in in vitro co-cultured, patient derived MSC/HSC cells; type: cell-based, human; details: 2 μM PXS-5505, 100 nM 5-AZA daily; flow cytometry after 14 days; n=3; FIG. 1
Text: Healthy CD34+ cells were isolated from hip replacement surgery bone specimen (old CD34+ cells) or collected by iliac crest puncture of healthy volunteers (young CD34+ cells). Approval for collection of patient samples was given by the Institutional Review Board of the Medical Faculty Mannheim, University of Heidelberg, Germany, in accordance with the declaration of Helsinki. All patients were informed and provided written consent for sample collection. Mononuclear cells (MNC) were isolated from bone marrow by Ficoll density gradient. CD34+ cells from MNC were isolated using MACS enrichment columns (Miltenyi Biotec, Bergisch Gladbach, Germany) according to the manufacturer's instructions as described. Purity of the CD34+ populations were confirmed by FACS analysis to be >95%. These were then viably frozen and thawed immediately before xenotransplantation.
Mesenchymal stromal cells (MSC) were isolated from residual diagnostic material and selected via their plastic adherence properties in culture. MSC were expanded in NH-Expansion medium (Miltenyi Biotec) and cultured to a maximum of 4 passages. Ex-vivo expanded MSCs were FACS analyzed to confirm adherence to the minimal criteria for defining multipotent mesenchymal stromal cells as described in [Medyouf, 2014]. […]

[2] = system: erythroid differentiation (the CD235a+ and CD45− population) in the bone marrow collected from xenotransplanted mice; test: Xenotransplantation model: erythroid differentiation from bone marrow of xenotransplanted mice; type: in vivo; details: 5-AZA 75 mg/m2 5+2 schedule, 3 cycles; PXS-5505 30 mg/kg every 48 h; 3 months; FIG. 2
Method: Female immunocompromised mice (NSG and NSGS, Jackson Laboratory) aged 6-8 week old were sub-lethally irradiated (200 cGy) before intrafemoral injections with a mix of CD34+ and MSCs cells (1×10^5:5×10^5) from primary myelofibrosis patients (with grade 3 fibrosis) as described previously [Medyouf, 2014]. The mice were treated with 5-AZA (75 mg/m^2 5+2 schedule, 3 cycles in total) and/or PXS-5505 (30 mg/kg every 48 h for the duration of 5-AZA treatment) for 3 months. At endpoint human CD45+ cells were FACS-sorted from mouse bone marrow. The CD45+ cells were differentiated in the medium supplemented with 5 U/mL EPO, 100 ng/mL SCF and 5 ng/mL IL-3 for 21 days followed by flow cytometry analysis for CD235a and CD45 markers as described previously.
Furthermore, it presents the rescue erythroid differentiation for a variety of different disease subtypes of myelodysplastic syndrome, chronic myelomonocytic leukemia and acute myeloid leukemia.

Compound: NC/C=C(\F)CS(=O)(=O)c1cccc2cccnc12 [PXS-5505]
- erythroid differentiation (CD235a+, CD45− cells) [1]: could rescue erythropoiesis
- erythroid differentiation (CD235a+ and CD45− population) in bone marrow from xenotransplanted mice [2]: could rescue erythropoiesis
